In patent US9598407B2, “Antibacterial piperidinyl substituted 3,4-dihydro-1H-[1,8]naphthyridinones” (JANSSEN SCIENCES IRELAND UC, priority 2011, dated 2017):

Assays:
[1] = biological target: S. aureus ATCC 29213 FabI (Staphylococcus aureus (strain MRSA252), UniProt Q6GI75); assay: Staphylococcus aureus FabI enzyme inhibition assay; format: biochemical; settings: 30 minutes at room temperature, pH 6.5
Procedure: D.1 FabI Enzyme Inhibition: Staphylococcus aureus FabI Enzyme Inhibition Assay
FabI enzyme inhibition assays were carried out in half-area, 384-well microtitre plates. Compounds were evaluated in 40-μl assay mixtures containing 100 mM NaADA, pH 6.5 (ADA=N-[2-acetamido]-2iminodiacetic acid), 250 μM crotonoyl-CoA, 625 μM NADH and 50 μg/ml S. aureus ATCC 29213 FabI Inhibitors were typically varied over the range of 50 to 0.39 μM. The reaction mixtures were incubated for 30 minutes at room temperature and the reaction was stopped by adding 200 mM Tris buffer (pH 9.0) to create a pH-shift. The consumption of NADH was monitored by measuring the change in absorbance at […]. By comparing sample readings to those of negative (absence of compound) and positive (absence of enzyme) controls, the percent inhibition of enzymatic activity of the compounds was determined A best-fit curve is fitted by a minimum of squares method. From this an IC50-value (expressed in μg/ml), resulting in 50% inhibition of enzymatic activity, was obtained.

Human HelaM cells = assay: Cytotoxicity MTT assay (TOX HELAM 222.125); format: cell-based; settings: 72 hours
Procedure: Cytotoxicity of the compounds was evaluated using the MTT assay. Human HelaM cells grown in 96-well plates were exposed to serial dilutions of the tested compounds (final volume of 0.2 ml) and incubated for 72 hours at 37° C. and 5% CO2 Inhibitors are typically varied over the range of 25 to 0.8 μM. The final DMSO concentration in the assay is 0.5%. MTT (3-(4,5-Dimethylthiazol-2-yl)-2,5-diphenyltetrazolium bromide, a tetrazole) was added and reduced to purple formazan only in living cells. Solubilization of the formazan crystals was achieved by adding 100 μl 2-propanol. Cell viability was determined by measuring the absorbance of the reduced formazan, giving a purple color, at 540 nm and 690 nm. The absorbance measured at 690 nm was automatically subtracted from the absorbance at 540 nm, to eliminate the effects of non-specific absorption. The percent cytotoxicity achieved by the compounds was calculated according to standard methods. Cytotoxicity is reported as CC50, the concentration that causes a 50% reduction in cell viability.
The results are depicted in the table D2 below (TOX HELAM).

[2] = tested on: Staphylococcus aureus ATCC 29213; assay: Antibacterial susceptibility testing, IC90 determination (STA 361.159); format: cell-based; settings: STA ATCC 29213; 90% inhibitory concentration for bacterial growth
Procedure: D.2 In Vitro Method for Testing Compounds for Antibacterial Activity Against Various Bacterial Strains Preparation of Bacterial Suspensions for Susceptibility Testing
(§1) The following bacteria were used: Staphylococcus aureus ATCC 29213, methicillin-resistant Staphylococcus aureus (MRSA) ATCC 700788 and Escherichia coli ATCC 35218. The bacteria used in this study were grown overnight in flasks containing 100 ml Mueller-Hinton broth (Difco cat. nr. 0757-17) in sterile de-ionized water, with shaking, at 37° C. Stocks were store at −70° C. until use.
(§2) Bacteria were incubated on a tryptic soy agar plate containing 5% sheep blood (Becton Dickinson cat. nr. 254053) for 18-24 hours at 35° C. in aerobic conditions (first passage). For the second passage, fresh Mueller-Hinton broth is inoculated with 5-10 colonies and grown overnight at 35° C. until turbidity (reaching log-phase) in aerobic conditions is reached. The bacterial suspension is then adjusted to 0.5 McFarland density and further diluted 1:100 in Mueller Hinton broth medium. This is used as inoculum.
Antibacterial Susceptibility Testing: IC90 Determination
(§3) MIC assays were performed by the broth microdilution method in a 96-well format (flat-bottom microtitre plates) with a final volume of 0.1 ml Mueller Hinton broth containing two-fold serial dilutions of compounds and inoculated with 5×10^5 CFU/ml of bacteria (standard inoculum size according to CLSI guidelines). Inhibitors are typically varied over the range of 63 to 0.49 μM. The final DMSO concentration in the assay was 1.25% (maximum tolerable DMSO concentration=6%). In the assays where the effect of human serum on the activity of the compounds against S. aureus was tested, human serum was added at a final concentration of 10%. The plates were incubated at 35° C. for 16-20 hours. At the end of incubation the bacterial growth was quantified fluorometrically. For this, resazurin was added to all wells and the plates were re-incubated. The incubation time is dependent on the type of bacteria. A change in color from blue to pink indicated the growth of bacteria. The fluorescence was read in computer-controlled fluorometer (Fluoroskan Ascent FL, Labsystems) at an excitation wavelength 540 nm and an emission wavelength of 590 nm. The % growth inhibition achieved by the compounds was calculated according to standard methods. The IC90 (expressed in μg/ml) was defined as the 90% inhibitory concentration for bacterial growth. A panel of reference compounds were simultaneously tested for QC approval.

S. aureus = assay: Antibacterial susceptibility testing, IC90 with 10% human serum (STA + 10% HS 361.169); format: cell-based, Staphylococcus aureus; settings: S. aureus with 10% human serum
Procedure: as §1, §2, §3
The results are depicted in the table D2 below (STA+10% HS).

| Structure (SMILES) | FabI IC50 [1] [µg/mL] | TOX HELAM (222.125) CC50 (Human HelaM cells) [µg/mL] | STA (361.159) IC90 [2] [µg/mL] | STA + 10% HS (361.169) IC90 (S. aureus) [µg/mL] |
| --- | --- | --- | --- | --- |
| O=C1CCc2cc(/C=C/C(=O)N3CCCC(Oc4ccccc4)C3)cnc2N1 (centres unmarked) [compound 1] | 3.52 | – | – | – |
| COc1ccccc1C1=CCN(C(=O)/C=C/c2cnc3c(c2)CCC(=O)N3)CC1 [compound 2] | 0.32 | >9.783 | 1.97 | 2.99 |
| O=C1CCc2cc(/C=C/C(=O)N3CCc4ccccc4C3)cnc2N1 [compound 3] | 0.48 | >8.374 | 8.67 | 10.79 |
| O=C1CCc2cc(/C=C/C(=O)N3CCC(c4ccccc4)CC3)cnc2N1 [compound 4] | 0.29 | >9.079 | 4.99 | 4.60 |
| O=C1CCc2cc(/C=C/C(=O)N3CCC(c4cccc(O)c4)CC3)cnc2N1 [compound 5] | 0.35 | >9.481 | 10.52 | 11.14 |
| O=C1CCc2cc(/C=C/C(=O)N3CCC(C(=O)c4ccccc4)CC3)cnc2N1 [compound 6] | 1.74 | – | – | – |
| O=C1CCc2cc(/C=C/C(=O)N3CC=C(c4ccccc4)CC3)cnc2N1 [compound 7] | 0.41 | >9.028 | 2.07 | 2.54 |
| O=C1CCc2cc(/C=C/C(=O)N3CC=C(c4ccc5c(c4)OCO5)CC3)cnc2N1 [compound 8] | 0.53 | – | – | – |
| O=C1CCc2cc(/C=C/C(=O)N3CC=C(c4ccco4)CC3)cnc2N1 [compound 9] | 0.34 | >8.776 | 2.91 | 2.65 |
| O=C1CCc2cc(/C=C/C(=O)N3CC=C(c4ccoc4)CC3)cnc2N1 [compound 10] | 0.48 | >8.776 | 10.43 | 20.34 |
| O=C1CCc2cc(/C=C/C(=O)N3CCC(O)(c4ccc(Cl)cc4)CC3)cnc2N1 [compound 11] | 0.80 | – | – | – |
| O=C1CCc2cc(/C=C/C(=O)N3CCC(Cc4ccccc4)CC3)cnc2N1 [compound 12] | 0.31 | >9.431 | 1.19 | 2.09 |
| COc1ccccc1C1CCN(C(=O)/C=C/c2cnc3c(c2)CCC(=O)N3)CC1 [compound 13] | 0.53 | – | – | – |
| COc1ccccc1CC1=CCN(C(=O)/C=C/c2cnc3c(c2)CCC(=O)N3)CC1 [compound 14] | 1.06 | >10.1352 | 6.93 | 13.06 |
| O=C1CCc2cc(/C=C/C(=O)N3CC=CCC3)cnc2N1 [compound 15] | 3.57 | – | – | – |
| O=C1CCc2cc(/C=C/C(=O)N3CC=C(c4ccccc4Cl)CC3)cnc2N1 [compound 16] | 0.58 | 8.04 | 3.31 | 8.52 |
| O=C1CCc2cc(/C=C/C(=O)N3CC=C(c4cc5ccccc5o4)CC3)cnc2N1 [compound 17] | 1.91 | – | – | – |
| O=C1CCc2cc(/C=C/C(=O)N3CC=C(c4cccnc4)CC3)cnc2N1 [compound 18] | 0.67 | – | – | – |
| O=C1CCc2cc(/C=C/C(=O)N3CC=C(c4cccc(C(F)(F)F)c4)CC3)cnc2N1 [compound 19] | 1.12 | – | – | – |

| Structure (SMILES) | FabI IC50 [1] [µg/mL] | TOX HELAM (222.125) CC50 (Human HelaM cells) [µg/mL] | STA (361.159) IC90 [2] [µg/mL] | STA + 10% HS (361.169) IC90 (S. aureus) [µg/mL] |
| --- | --- | --- | --- | --- |
| COc1ccncc1C1=CCN(C(=O)/C=C/c2cnc3c(c2)CCC(=O)N3)CC1 [compound 20] | 0.78 | >9.808 | 13.23 | 16.85 |
| COc1ccccc1C1=CCCN(C(=O)/C=C/c2cnc3c(c2)CCC(=O)N3)C1 [compound 21] | 0.80 | – | – | – |
| COc1cccc(C2=CCN(C(=O)/C=C/c3cnc4c(c3)CCC(=O)N4)CC2)c1 [compound 22] | 0.93 | >9.783 | 21.16 | >24.5733 |
| COc1ccc(C2=CCN(C(=O)/C=C/c3cnc4c(c3)CCC(=O)N4)CC2)cc1 [compound 23] | 0.85 | – | – | – |
| O=C1CCc2cc(/C=C/C(=O)N3CCN(Cc4ccccc4)CC3)cnc2N1 [compound 24] | 7.17 | – | – | – |
| O=C1CCc2cc(/C=C/C(=O)N3CCN(c4ccccc4)CC3)cnc2N1 [compound 25] | 1.48 | – | – | – |
| O=C1CCc2cc(/C=C/C(=O)N3CCCCC3)cnc2N1 [compound 26] | 2.73 | – | – | – |
| CC1CN(C(=O)/C=C/c2cnc3c(c2)CCC(=O)N3)CC=C1c1ccccc1 (centres unmarked) [compound 27] | 0.57 | >9.381 | 6.13 | 21.99 |
| O=C1CCc2cc(/C=C/C(=O)N3CCC(Oc4ccccc4)CC3)cnc2N1 [compound 28] | 0.93 | – | – | – |
| O=C1CCc2cc(/C=C/C(=O)N3CCC(CCOc4ccccc4)CC3)cnc2N1 [compound 29] | 1.00 | – | – | – |
| O=C1CCc2cc(/C=C/C(=O)N3CCC(CCOc4ccc(F)cc4)CC3)cnc2N1 [compound 30] | 1.34 | – | – | – |
| O=C1CCc2cc(/C=C/C(=O)N3CCC(Cc4coc5cc(F)ccc45)CC3)cnc2N1 [compound 31] | 0.79 | – | – | – |
| O=C1CCc2cc(/C=C/C(=O)N3CCC(Cc4nc5ccccc5s4)CC3)cnc2N1 [compound 32] | 1.72 | – | – | – |
| O=C1CCc2cc(/C=C/C(=O)N3CCC(COc4ccc(F)cc4)CC3)cnc2N1 [compound 34] | 0.47 | >10.2852 | 9.94 | 12.51 |
| O=C1CCc2cc(/C=C/C(=O)N3CCC(Cn4cnnc4)CC3)cnc2N1 [compound 38] | >7.31 | – | – | – |
| O=C1CCc2cc(/C=C/C(=O)N3CCC(Cn4ccc5ccccc54)CC3)cnc2N1 [compound 39] | 2.74 | – | – | – |
| O=C1CCc2cc(/C=C/C(=O)N3CCC(Cn4cncn4)CC3)cnc2N1 [compound 40] | 1.43 | – | – | – |
| O=C1CCc2cc(/C=C/C(=O)N3CCC(Cc4ccc5ccccc5n4)CC3)cnc2N1 [compound 41] | 3.39 | – | – | – |
| Cc1ccc(-c2ccccc2)n1CC1CCN(C(=O)/C=C/c2cnc3c(c2)CCC(=O)N3)CC1 [compound 42] | 10.18 | – | – | – |
